Measurements: patent publication US12692291B2, “Diamine-linked melanocortin receptor-specific cyclic peptides for ocular indications” (Boehringer Ingelheim International GmbH, priority 2020, dated 2026)
*1 amine or outer side, *2 acyl side, *3 side chain or, on linkers, in order; H or OH if unused. Where a SMILES comes first, the peptide text is derived from it. Bridges are numbered along the chain shown (N, C = ends). [ ]: non-standard residue; d: D form. dPhe(4-F) = N[C@H](Cc1ccc(F)cc1)C(=O)O; NH(CH2)4NH = C(CCN[*:2])CN[*:1]; Nle = CCCC[C@H](N)C(=O)O

How the values were obtained:
[1] = target: T1, MC1r (HBL) (Homo sapiens, UniProt Q01726); test: cAMP agonist functional assay, native MC1r in HBL cells; assay type: cell-based
T1 construct: B16-F10 (mouse) and HBL (human) cell lines that express native MC1 r; endogenous in cells; host or cells: HBL (human) cell line
Protocol: (§1) Accumulation of intracellular cAMP was examined as a measure of the ability of the peptides to elicit a functional response in either HEK-293 cells that express recombinant MC3r or MC4r or B16-F10 (mouse) and HBL (human) cell lines that express native MC1 r. Confluent cells were detached from culture plates by incubation in enzyme-free cell dissociation buffer. Dispersed cells were suspended in Hank's Balanced Salt Solution containing 10 mM HEPES (pH 7.5), 1 mM MgCl2, 1 mM glutamine, 0.5% albumin and 0.3 mM 3-isobutyl-1-methyl-xanthine (IBMX), a phosphodiesterase inhibitor. The cells were dispensed into 96-well plates at a density of 0.5×10^5 cells per well and pre-incubated for 10 minutes. Cells were exposed for 15 minutes at 37° C. to peptides dissolved in DMSO (final DMSO concentration of 1%) at a concentration range of 0.05-5000 nM in a total assay volume of 200 μL. […] Data analysis was performed by nonlinear regression analysis with Graph-Pad Prism® software.

[2] = target: T2, MC1r (B16/F10) (Mus musculus, UniProt Q01727); test: cAMP agonist functional assay, native MC1r in B16-F10 cells; assay type: cell-based
T2 construct: B16-F10 (mouse) and HBL (human) cell lines that express native MC1 r; endogenous in cells; host or cells: B16-F10 (mouse) cell line
Protocol: as §1

[3] = target: T3, MC3r (Homo sapiens, UniProt P41968); test: cAMP agonist functional assay, recombinant MC3r in HEK-293 cells; assay type: cell-based
T3 construct: expressed in transfected cells; host or cells: HEK-293
Protocol: as §1

[4] = target: T4, MC4r (Homo sapiens, UniProt P32245); test: cAMP agonist functional assay, recombinant MC4r in HEK-293 cells; assay type: cell-based
T4 construct: expressed in transfected cells; host or cells: HEK-293
Protocol: as §1

[5] = target: T5, MC5r (Homo sapiens, UniProt P33032); test: cAMP agonist functional assay at MC5r (not CEREP); assay type: cell-based
Target sequence in this assay (P33032 whole entry, species assumed): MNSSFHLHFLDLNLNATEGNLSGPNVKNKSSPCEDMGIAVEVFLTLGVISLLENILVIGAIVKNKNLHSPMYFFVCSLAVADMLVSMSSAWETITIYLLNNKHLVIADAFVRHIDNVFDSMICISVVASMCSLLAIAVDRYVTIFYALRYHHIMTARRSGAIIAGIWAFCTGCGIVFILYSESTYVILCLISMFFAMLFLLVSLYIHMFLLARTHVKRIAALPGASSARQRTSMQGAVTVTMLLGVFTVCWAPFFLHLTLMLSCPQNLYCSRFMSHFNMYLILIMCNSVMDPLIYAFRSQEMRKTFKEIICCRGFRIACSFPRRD

[6] = target: T5, MC5r; test: CEREP agonist assay, cAMP production by HTRF, MC5 in CHO-K1 cells; assay type: cell-based
Protocol: Evaluation of the agonist activity of compounds at the melanocortin receptors was determined by measuring their effects on cAMP production using the HTRF detection method at CEREP (Eurofins CEREP SA, Celle-Levescault, France). The cells were suspended in HBSS buffer (Invitrogen) complemented with 20 mM HEPES (pH 7.4) and 500 μM IBMX, then distributed in microplates and incubated in the presence of HBSS (basal control), the test compound or the reference agonist. Incubation time, temperature, cell number, reference agonist and cell line information are included in the Table 1 below. For stimulated control measurement, separate assay wells contain reference compound. Following incubation, the cells are lysed and the fluorescence acceptor (D2-labeled cAMP) and fluorescence donor (anti-cAMP antibody labeled with europium cryptate) were added. After 60 minutes at room temperature, the fluorescence transfer was measured at excitation wavelength 337 nm and emission wavelengths 620 and 665 nm using a microplate reader (Envision, Perkin Elmer). The cAMP concentration was determined by dividing the signal measured at 665 nm by that measured at 620 nm (ratio).
The results are expressed as a percent of the control response to 1 μM of the reference. The standard reference agonist is tested in each experiment at several concentrations to generate a concentration-response curve from which its EC50 value is calculated.
Target sequence in this assay (P33032 whole entry): as the sequence (P33032 whole entry, species assumed) above

[7] = tested on: male C57BL/6JRj mice; test: Chronic dry-eye disease mouse model (desiccating environment plus scopolamine), corneal fluorescein staining; assay type: in vivo; settings: for corneal fluorescein staining compared with untreated eyes: Day 24, after 12 days topical treatment
Protocol: To determine efficacy of peptide No. 60 for moderate, chronic dry-eye disease, male C57BL/6JRj mice were exposed to a controlled desiccating environment with transdermal administration of scopolamine (SiccaSystem™) to establish disease prior to any treatment. Corneal fluorescein staining was performed on study Days 10 and 12 (prior to treatment) and Day 24 (after 12 days of topical treatment with test compounds). Animals were randomized into 6 different experimental groups (n=12 for each treatment group, n=7 for untreated eyes) based on the fluorescein score on Day 12. Treatment arms included untreated and vehicle-treated animals and animals receiving Peptide No. 60 (3 different concentrations, 10^−2, 10^−3, and 10^−4 mg/mL) or the reference compound cyclosporin ophthalmic emulsion, sold under the trade name Restasis®.

[8] = tested on: adult subjects with mild, moderate or severe dry eye disease; test: Phase 2 placebo-controlled study in dry eye disease, Controlled Adverse Environment; assay type: in vivo, human
Source text: Peptide No. 60 was utilized in the ophthalmologic solution drug product of Example 9.3 in a multi-center, double-masked, randomized, placebo-controlled, parallel-arm, Phase 2 study, which enrolled approximately 160 subjects (80 subjects per treatment arm). The objective of this study was to compare the safety and efficacy of Peptide No. 60 to its vehicle from Day 1 (baseline) to Day 85 (Week 12) in adult subjects with mild, moderate or severe dry eye disease in a Controlled Adverse Environment (CAE) setting. Both signs and symptoms were assessed at periodic visits.
During the screening period, two 90-minute exposures to the CAE were conducted to ascertain eligibility to enter the study. Subjects who qualify were randomized to receive study drug or placebo in a double-masked fashion for 12 weeks. Subjects self-administered drops three times per day (TID) and completed daily diary assessments as instructed.
At Visits 3 (Day 15, Week 2), 4 (Day 29, Week 4), 5 (Day 57, Week 8), and 6 (Day 85, Week 12), subjects were exposed to a CAE, with pre-CAE, during CAE (symptoms only) and post-CAE assessments of ocular signs and symptoms.

[9] = Ocular tissue distribution after dosing to the eye, mouse model; assay type: in vivo; settings: at both 4 and 24 hours after dosing to the eye
Protocol: Peptide No. 60 was evaluated in several stability and pharmacokinetic models.

T1 sequence (Q01726 whole entry): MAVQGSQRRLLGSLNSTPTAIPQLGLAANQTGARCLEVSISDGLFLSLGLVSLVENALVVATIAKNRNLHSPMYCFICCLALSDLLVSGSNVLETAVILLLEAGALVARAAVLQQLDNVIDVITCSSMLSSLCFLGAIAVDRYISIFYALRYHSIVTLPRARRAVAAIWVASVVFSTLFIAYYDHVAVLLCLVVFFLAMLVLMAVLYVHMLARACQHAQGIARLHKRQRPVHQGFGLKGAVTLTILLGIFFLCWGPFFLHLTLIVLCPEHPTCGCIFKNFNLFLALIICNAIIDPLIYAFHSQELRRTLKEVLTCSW
T4 sequence (P32245 whole entry): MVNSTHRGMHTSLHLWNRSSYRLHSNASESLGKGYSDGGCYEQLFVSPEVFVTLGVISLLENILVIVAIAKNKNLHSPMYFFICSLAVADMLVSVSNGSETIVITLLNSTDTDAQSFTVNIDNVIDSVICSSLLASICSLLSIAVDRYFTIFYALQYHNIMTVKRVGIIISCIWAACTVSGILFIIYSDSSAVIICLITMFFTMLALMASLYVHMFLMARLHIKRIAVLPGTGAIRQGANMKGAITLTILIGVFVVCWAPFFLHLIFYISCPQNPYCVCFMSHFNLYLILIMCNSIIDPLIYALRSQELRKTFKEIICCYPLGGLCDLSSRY
T3 sequence (P41968 whole entry, species assumed): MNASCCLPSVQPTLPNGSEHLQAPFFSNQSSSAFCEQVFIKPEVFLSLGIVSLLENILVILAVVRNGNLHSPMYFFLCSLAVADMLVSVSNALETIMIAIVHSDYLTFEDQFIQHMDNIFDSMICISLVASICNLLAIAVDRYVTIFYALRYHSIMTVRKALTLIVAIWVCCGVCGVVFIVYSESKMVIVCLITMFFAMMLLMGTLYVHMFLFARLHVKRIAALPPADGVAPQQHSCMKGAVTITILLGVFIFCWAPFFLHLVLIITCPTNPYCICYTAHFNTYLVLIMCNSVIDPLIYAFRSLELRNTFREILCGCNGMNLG
T2 sequence (Q01727 whole entry): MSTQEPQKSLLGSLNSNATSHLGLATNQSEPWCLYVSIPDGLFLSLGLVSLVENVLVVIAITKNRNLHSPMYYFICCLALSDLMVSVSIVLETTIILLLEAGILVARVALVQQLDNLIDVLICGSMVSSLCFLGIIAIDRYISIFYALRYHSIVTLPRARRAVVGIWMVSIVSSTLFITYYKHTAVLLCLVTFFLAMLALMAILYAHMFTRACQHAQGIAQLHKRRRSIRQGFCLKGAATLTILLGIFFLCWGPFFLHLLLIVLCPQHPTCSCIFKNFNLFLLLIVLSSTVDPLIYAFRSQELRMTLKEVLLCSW

Compound: CCCC[C@H](NC(C)=O)C(=O)N[C@H]1CCC(=O)NCCCCNC(=O)[C@H](Cc2c[nH]c3ccccc23)NC(=O)[C@H](CCCNC(=N)N)NC(=O)[C@@H](Cc2ccc(F)cc2)NC(=O)[C@H](Cc2c[nH]cn2)NC1=O [Peptide No. 60, Ac-Nle-cyclo(Glu-His-D-Phe(4-F)-Arg-Trp-NH—(CH2)4—NH)] (Ac-[Nle]EH[dPhe(4-F)]RW; linker 2-C via NH(CH2)4NH)
- EC50 ([1]; MC1r (HBL)): 130 pM
- Fold Peptide No. 60 More Potent Than Bremelanotide ([1]; MC1r (HBL)): 0.78X
- Fold Peptide No. 60 More Potent Than α-MSH ([1]; MC1r (HBL)): 69X
- potency compared to bremelanotide (in words) ([1]; at MC1r): approximately equal potency
- potency compared to α-MSH (in words) ([1]; at MC1r): greater relative potency
- EC50 [2]: 20 pM
- Fold Peptide No. 60 More Potent Than Bremelanotide [2]: 5X
- Fold Peptide No. 60 More Potent Than α-MSH [2]: 11X
- EC50 ([3]; MC3r): 770 pM
- Fold Peptide No. 60 More Potent Than Bremelanotide ([3]; MC3r): 4X
- Fold Peptide No. 60 More Potent Than α-MSH ([3]; MC3r): 3.9X
- potency compared to α-MSH (in words) ([3]; at MC3r): roughly comparable
- EC50 ([4]; MC4r): 2000 pM
- Fold Peptide No. 60 More Potent Than Bremelanotide ([4]; MC4r): 0.5X
- Fold Peptide No. 60 More Potent Than α-MSH ([4]; MC4r): 1.5X
- potency compared to α-MSH (in words) ([4]; at MC4r): roughly comparable
- EC50 ([5]; MC5r): 150 pM
- Fold Peptide No. 60 More Potent Than Bremelanotide ([5]; MC5r): 22,500X
- Fold Peptide No. 60 More Potent Than α-MSH ([5]; MC5r): 686X
- potency compared to α-MSH (in words) ([5]; at MC5r): greater relative potency
- EC50 [6]: 390 pM
- Fold Peptide No. 60 More Potent Than Bremelanotide [6]: >25,000X (CEREP)
- Fold Peptide No. 60 More Potent Than α-MSH [6]: 930X (CEREP)
- corneal fluorescein staining compared with untreated eyes ([7]; 10^−2 mg/ml, P<0.05, Dunn's multiple comparisons test): statistically significant lower corneal fluorescein staining
- corneal fluorescein staining compared with untreated eyes ([7]; 10^−3 mg/ml, P<0.01, Dunn's multiple comparisons test): statistically significant lower corneal fluorescein staining
- corneal fluorescein staining compared with untreated eyes ([7]; 10^−4 mg/ml, P<0.01, Dunn's multiple comparisons test): statistically significant lower corneal fluorescein staining
- corneal fluorescein staining/scores, Day 12 compared with Day 24 for the same eye ([7]; doses between 10^−2 and 10^−4 mg/mL, topical): statistically significantly improvement of corneal fluorescein scores
- ocular, drug-related adverse events ([8]; Phase 2 study): no ocular, drug-related adverse events
- serious adverse events associated with study treatment ([8]; Phase 2 study): no serious adverse events associated with study treatment observed
- patients discontinued from the study ([8]; not deemed to be drug related): one
- presence in ocular tissues [9]: found in both the conjunctiva and lacrimal gland
